Consider 2 molecules from PMC2225439, “Amyloid as a Depot for the Formulation of Long-Acting Drugs” (PLoS Biology, 2008).

One data set relates to histamine release. The settings on record: cited from earlier work.
The subject of data set [1] is mouse embryo fibroblast cells. Description: LDH release assay. Type of data set: cell-based. The settings on record: 1 μM Aβ(1–40); triplicate. The text has this:
Since amyloid fibrils can be toxic to cells and are associated with several neurological diseases, it is a concern whether or not amyloid fibrils of GnRH analogs are able to generate a toxic response as well. To measure the potential toxicity of GnRH analogs, we used the lactate dehydrogenase (LDH) release assay for cell killing. The LDH release assay is a widely used assay to determine the cytotoxicity of chemicals or environmental toxic factors. LDH is a soluble cytosolic enzyme that is released into the culture medium following the loss of membrane integrity. For the LDH assay, we used mouse embryo fibroblast cells and aged peptide samples at 60 μM in 5% D-mannitol.
For the LDH assay, we used mouse embryo fibroblast cells and peptide fibrils at 60 μM final concentration in 5% D-mannitol. For the buffer control, we used 5% D-mannitol in water. We also used 1 μM Aβ(1–40) and a cell lysate to compare our data. The assay was done using a kit (Sigma) as described by the manufacturer. The assays were done in triplicate and the data presented as the standard error of the mean.
Background: LDH leaks from cells whose membrane has failed.

Where a SMILES comes first, the peptide text is derived from it. [ ]: non-standard residue; d: D form. The star is where a group is joined. dPhe(4-NHCONH2) = NC(=O)Nc1ccc(C[C@@H](N)C(=O)O)cc1; Dihydroorotyl(S) = O=C1C[C@@H](C(=O)*)NC(=O)N1; dPhe(4-Cl) = N[C@H](Cc1ccc(Cl)cc1)C(=O)O; Phe(4-NH2) = Nc1ccc(C[C@H](N)C(=O)O)cc1; d2Nal = N[C@H](Cc1ccc2ccccc2c1)C(=O)O; Lys(iPr) = CC(C)NCCCC[C@H](N)C(=O)O; d3Pal = N[C@H](Cc1cccnc1)C(=O)O

With `CC(=O)N[C@H](Cc1ccc2ccccc2c1)C(=O)N[C@H](Cc1ccc(Cl)cc1)C(=O)N[C@H](Cc1cccnc1)C(=O)N[C@@H](CO)C(=O)N[C@@H](Cc1ccc(NC(=O)[C@@H]2CC(=O)NC(=O)N2)cc1)C(=O)N[C@H](Cc1ccc(NC(N)=O)cc1)C(=O)N[C@@H](CC(C)C)C(=O)N[C@@H](CCCCNC(C)C)C(=O)N1CCC[C@H]1C(=O)N[C@H](C)C(N)=O` [L13, Ac-DNal-DCpa-DPal-Ser-Aph(LHor)-DAph(Cbm)-Leu-ILys-Pro-DAla-NH2] (Ac-[d2Nal][dPhe(4-Cl)][d3Pal]S[Phe(4-NH2)](Dihydroorotyl(S))[dPhe(4-NHCONH2)]L[Lys(iPr)]P[dA]-NH2), the “safety margin with regard to histamine release” value with histamine release is “good safety margin”.

Turning to “Aβ(1–40): amyloid peptide Aβ(1–40), used as positive control in the LDH release assay”, in data set [1], the “toxicity (LDH release)” value is reported as “neither the peptide analog samples nor Aβ(1–40) generated toxicity”.
